Key:
Type in all cases: in vivo
Apera spica-venti = assay: Test Example 5: herbicidal effect by foliage application, plastic box (symbol L); conditions: 320 g/ha, 3 weeks after application
Summary of the method: (§1)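 Seeds were sown in sterilized diluvial soil, covered with about 1.5 cm of soil and grown 14 days in a greenhouse at 25° C. to 30° C. An emulsifiable formulation diluted in water to a set rate was sprayed over foliage, and injury was scored 3 weeks later.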

Scirpus juncoides = assay: Test Example 1: herbicidal activity, application before weed generation in submerged conditions (symbol B); conditions: application herbicide amount 320 g/ha
Summary of the method: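 Paddy pre-emergence test. Formulated emulsion, water-diluted to a predetermined rate, is applied to floodwater on sowing day; rice transplanted at 2.5 leaves. Effect read at 3 weeks on a 0–5 herbicidal-ratio scale.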

Abutilon theophrasti = assay: Test Example 4: herbicidal effect by soil treatment (symbol M); conditions: for M: Abutilon theophrasti, herbicidal effect grade: 320 g/ha
Summary of the method: (§2)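 Seeds were sown in sterilized diluvial soil, covered with about 1.5 cm of soil, and the soil surface was sprayed with a water-diluted emulsion of the compound at a predetermined rate. Plants grew in a greenhouse at 25° C. to 30° C.; effects were scored visually 3 weeks after application.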

Lolium multiflorum Lam. = assay: Test Example 5: herbicidal effect by foliage application, plastic box (symbol K); conditions: 320 g/ha, 3 weeks after application
Summary of the method: as §1

rice plant = assay: Test Example 5: effect on crop by foliage application, plastic box (symbol b); conditions: 320 g/ha, 3 weeks after application
Summary of the method: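 Sterilized diluvial soil, plastic box (21 × 13 × 7 cm); spot sowing, ~1.5 cm soil cover; greenhouse 25–30° C.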

Chenopodium album = assay: Test Example 4: herbicidal effect by soil treatment (symbol O); conditions: for O: Chenopodium album, herbicidal effect grade: 320 g/ha
Summary of the method: as §2

Amaranthus retroflexus = assay: Test Example 5: herbicidal effect by foliage application, plastic box (symbol N); conditions: 320 g/ha, 3 weeks after application
Summary of the method: as §1

[1] = test system: Echinochloa crus-galli var. crus-galli; assay: Test Example 4: herbicidal effect by soil treatment (symbol H); conditions: for H: Echinochloa crus-galli var. crus-galli, herbicidal effect grade: 320 g/ha
Summary of the method: as §2

[2] = application herbicide amount 320 g/ha

CON=C(C)CC1CC(OC(=O)COc2ccc3ccccc3c2)=C(c2c(C)cc(C)cc2C)C1=O (stereo not shown) [1-083]
L: Apera spica-venti, herbicidal effect (criteria 0-5) (Apera spica-venti): 5 (Herbicidal ratio of 90% or more (almost completely withered))
Herbicidal effect grade, B: Scirpus juncoides (Scirpus juncoides): 4 (Herbicidal ratio of 70% or higher and lower than 90%)
M: Abutilon theophrasti, herbicidal effect grade (Abutilon theophrasti): 4 (Herbicidal ratio of 70% or higher and lower than 90%)
K: Lolium multiflorum Lam., herbicidal effect (criteria 0-5) (Lolium multiflorum Lam.): 5 (Herbicidal ratio of 90% or more (almost completely withered))
b: directly sowed rice plant, effect on crop (criteria 0-5) (rice plant): 5 (Herbicidal ratio of 90% or more (almost completely withered))
O: Chenopodium album, herbicidal effect grade (Chenopodium album): 0 (Herbicidal ratio of 5% or lower (almost no effect))
N: Amaranthus retroflexus, herbicidal effect (criteria 0-5) (Amaranthus retroflexus): 4 (Herbicidal ratio of 70% or higher and lower than 90%)
H: Echinochloa crus-galli var. crus-galli, herbicidal effect grade [1]: 5 (Herbicidal ratio of 90% or more (almost completely withered))

CON=C(CC1CC(O)=C(c2c(C)cc(C)cc2C)C1=O)C1CCCCC1 (stereo not shown) [1-085]
L: Apera spica-venti, herbicidal effect (criteria 0-5) (Apera spica-venti): 3 (Herbicidal ratio of 40% or higher and lower than 70%)
Herbicidal effect grade, B: Scirpus juncoides (Scirpus juncoides): 0 (Herbicidal ratio of 5% or lower (almost no effect))
M: Abutilon theophrasti, herbicidal effect grade (Abutilon theophrasti): 0 (Herbicidal ratio of 5% or lower (almost no effect))
K: Lolium multiflorum Lam., herbicidal effect (criteria 0-5) (Lolium multiflorum Lam.): 3 (Herbicidal ratio of 40% or higher and lower than 70%)
b: directly sowed rice plant, effect on crop (criteria 0-5) (rice plant): 4 (Herbicidal ratio of 70% or higher and lower than 90%)
O: Chenopodium album, herbicidal effect grade (Chenopodium album): 0 (Herbicidal ratio of 5% or lower (almost no effect))
N: Amaranthus retroflexus, herbicidal effect (criteria 0-5) (Amaranthus retroflexus): 0 (Herbicidal ratio of 5% or lower (almost no effect))
H: Echinochloa crus-galli var. crus-galli, herbicidal effect grade [1]: 1 (Herbicidal ratio of 5% or higher and lower than 20%)

C=CC(CC1CC(O)=C(c2c(C)cc(C)cc2C)C1=O)=NOC (stereo not shown) [1-086]
L: Apera spica-venti, herbicidal effect (criteria 0-5) (Apera spica-venti): 4 (Herbicidal ratio of 70% or higher and lower than 90%)
Herbicidal effect grade, B: Scirpus juncoides (Scirpus juncoides): 0 (Herbicidal ratio of 5% or lower (almost no effect))
M: Abutilon theophrasti, herbicidal effect grade (Abutilon theophrasti): 0 (Herbicidal ratio of 5% or lower (almost no effect))
K: Lolium multiflorum Lam., herbicidal effect (criteria 0-5) (Lolium multiflorum Lam.): 5 (Herbicidal ratio of 90% or more (almost completely withered))
b: directly sowed rice plant, effect on crop (criteria 0-5) (rice plant): 4 (Herbicidal ratio of 70% or higher and lower than 90%)
O: Chenopodium album, herbicidal effect grade (Chenopodium album): 0 (Herbicidal ratio of 5% or lower (almost no effect))
N: Amaranthus retroflexus, herbicidal effect (criteria 0-5) (Amaranthus retroflexus): 0 (Herbicidal ratio of 5% or lower (almost no effect))
H: Echinochloa crus-galli var. crus-galli, herbicidal effect grade [1]: 1 (Herbicidal ratio of 5% or higher and lower than 20%)

CON=C(C)CC1CC(OC(=O)C2=CCCC2)=C(c2c(C)cc(C)cc2C)C1=O (stereo not shown) [1-088]
L: Apera spica-venti, herbicidal effect (criteria 0-5) (Apera spica-venti): 5 (Herbicidal ratio of 90% or more (almost completely withered))
Herbicidal effect grade, B: Scirpus juncoides (Scirpus juncoides): 5 (Herbicidal ratio of 90% or more (almost completely withered))
M: Abutilon theophrasti, herbicidal effect grade (Abutilon theophrasti): 0 (Herbicidal ratio of 5% or lower (almost no effect))
K: Lolium multiflorum Lam., herbicidal effect (criteria 0-5) (Lolium multiflorum Lam.): 5 (Herbicidal ratio of 90% or more (almost completely withered))
b: directly sowed rice plant, effect on crop (criteria 0-5) (rice plant): 5 (Herbicidal ratio of 90% or more (almost completely withered))
O: Chenopodium album, herbicidal effect grade (Chenopodium album): 0 (Herbicidal ratio of 5% or lower (almost no effect))
N: Amaranthus retroflexus, herbicidal effect (criteria 0-5) (Amaranthus retroflexus): 1 (Herbicidal ratio of 5% or higher and lower than 20%)
H: Echinochloa crus-galli var. crus-galli, herbicidal effect grade [1]: 5 (Herbicidal ratio of 90% or more (almost completely withered))

CON=C(C)CC1CC(OC(=O)C2=C(Br)CCC2)=C(c2c(C)cc(C)cc2C)C1=O (stereo not shown) [1-089]
L: Apera spica-venti, herbicidal effect (criteria 0-5) (Apera spica-venti): 5 (Herbicidal ratio of 90% or more (almost completely withered))
Herbicidal effect grade, B: Scirpus juncoides (Scirpus juncoides): 5 (Herbicidal ratio of 90% or more (almost completely withered))
M: Abutilon theophrasti, herbicidal effect grade (Abutilon theophrasti): 2 (Herbicidal ratio of 20% or higher and lower than 40%)
K: Lolium multiflorum Lam., herbicidal effect (criteria 0-5) (Lolium multiflorum Lam.): 5 (Herbicidal ratio of 90% or more (almost completely withered))
b: directly sowed rice plant, effect on crop (criteria 0-5) (rice plant): 5 (Herbicidal ratio of 90% or more (almost completely withered))
O: Chenopodium album, herbicidal effect grade (Chenopodium album): 0 (Herbicidal ratio of 5% or lower (almost no effect))
N: Amaranthus retroflexus, herbicidal effect (criteria 0-5) (Amaranthus retroflexus): 2 (Herbicidal ratio of 20% or higher and lower than 40%)
H: Echinochloa crus-galli var. crus-galli, herbicidal effect grade [1]: 5 (Herbicidal ratio of 90% or more (almost completely withered))

CCCC=CC(=O)OC1=C(c2c(C)cc(C)cc2C)C(=O)C(CC(C)=NOC)C1 (stereo not shown) [1-090]
L: Apera spica-venti, herbicidal effect (criteria 0-5) (Apera spica-venti): 5 (Herbicidal ratio of 90% or more (almost completely withered))
Herbicidal effect grade, B: Scirpus juncoides (Scirpus juncoides): 5 (Herbicidal ratio of 90% or more (almost completely withered))
M: Abutilon theophrasti, herbicidal effect grade (Abutilon theophrasti): 4 (Herbicidal ratio of 70% or higher and lower than 90%)
K: Lolium multiflorum Lam., herbicidal effect (criteria 0-5) (Lolium multiflorum Lam.): 5 (Herbicidal ratio of 90% or more (almost completely withered))
b: directly sowed rice plant, effect on crop (criteria 0-5) (rice plant): 5 (Herbicidal ratio of 90% or more (almost completely withered))
O: Chenopodium album, herbicidal effect grade (Chenopodium album): 0 (Herbicidal ratio of 5% or lower (almost no effect))
N: Amaranthus retroflexus, herbicidal effect (criteria 0-5) (Amaranthus retroflexus): 1 (Herbicidal ratio of 5% or higher and lower than 20%)
H: Echinochloa crus-galli var. crus-galli, herbicidal effect grade [1]: 5 (Herbicidal ratio of 90% or more (almost completely withered))

CON=C(C)CC1CC(OC(=O)COCc2ccccc2)=C(c2c(C)cc(C)cc2C)C1=O (stereo not shown) [1-094]
L: Apera spica-venti, herbicidal effect (criteria 0-5) (Apera spica-venti): 5 (Herbicidal ratio of 90% or more (almost completely withered))
Herbicidal effect grade, B: Scirpus juncoides (Scirpus juncoides): 5 (Herbicidal ratio of 90% or more (almost completely withered))
M: Abutilon theophrasti, herbicidal effect grade (Abutilon theophrasti): 2 (Herbicidal ratio of 20% or higher and lower than 40%)
K: Lolium multiflorum Lam., herbicidal effect (criteria 0-5) (Lolium multiflorum Lam.): 5 (Herbicidal ratio of 90% or more (almost completely withered))
b: directly sowed rice plant, effect on crop (criteria 0-5) (rice plant): 5 (Herbicidal ratio of 90% or more (almost completely withered))
O: Chenopodium album, herbicidal effect grade (Chenopodium album): 0 (Herbicidal ratio of 5% or lower (almost no effect))
N: Amaranthus retroflexus, herbicidal effect (criteria 0-5) (Amaranthus retroflexus): 2 (Herbicidal ratio of 20% or higher and lower than 40%)
H: Echinochloa crus-galli var. crus-galli, herbicidal effect grade [1]: 5 (Herbicidal ratio of 90% or more (almost completely withered))

CON=C(CC1CC(O)=C(c2c(C)cc(Br)cc2C)C1=O)C1CC1 (stereo not shown) [9-002]
L: Apera spica-venti, herbicidal effect grade (Apera spica-venti): 5 (Herbicidal ratio of 90% or more (almost completely withered))
Herbicidal effect grade, B: Scirpus juncoides (Scirpus juncoides): 2 (Herbicidal ratio of 20% or higher and lower than 40%)
Herbicidal effect grade, M: Abutilon theophrasti (Abutilon theophrasti; [2]): 0 (Herbicidal ratio of 5% or lower (almost no effect))
K: Lolium multiflorum Lam., herbicidal effect grade (Lolium multiflorum Lam.): 5 (Herbicidal ratio of 90% or more (almost completely withered))
b: directly sowed rice plant, effect on crop grade (rice plant): 5 (Herbicidal ratio of 90% or more (almost completely withered))
Herbicidal effect grade, O: Chenopodium album (Chenopodium album; [2]): 0 (Herbicidal ratio of 5% or lower (almost no effect))
N: Amaranthus retroflexus, herbicidal effect grade (Amaranthus retroflexus): 3 (Herbicidal ratio of 40% or higher and lower than 70%)
Herbicidal effect grade, H: Echinochloa crus-galli var. crus-galli [1, 2]: 5 (Herbicidal ratio of 90% or more (almost completely withered))

— patent US11000033B2, “Ketone or oxime compound, and herbicide” (NISSAN CHEMICAL CORPORATION, priority 2014, dated 2021)
